From US4624960A, “Sedative having analgesic and bradycardiac properties” (Boehringer Ingelheim Vetmedica GmbH, priority 1984, dated 1986)
Structures can show the parent of a compound that is named as a salt.

What was measured:
[1] = Bradycardiac Effect; type: in vivo
[2] = Writhing Test (analgesic effect); type: in vivo
[3] = tested on: Pig; assay: Sedation and analgesia in pig, activity vs dosage; type: in vivo
Source text: (§1) The following table sets forth the correlation between activity and dosage of 2-[(2-bromo-6-fluorophenyl)-imino]-imidazolidine hydrochloride: […]

[4] = tested on: Poultry; assay: Sedation in poultry, activity vs dosage; type: in vivo
Source text: as §1

[5] = tested on: Calf; assay: Premedication for surgical intervention (hernia umbilicalis) in calf; type: in vivo; conditions: 0.01 mg/kg i.v., operation 20 minutes after injection
Source text: as §1

[6] = tested on: Cattle (calf); assay: Sedation and analgesia in cattle (calf), activity vs dosage; type: in vivo; conditions: for Effect: analgesia / Effect: sedation / Effect: sleep: cattle (calf)
Source text: as §1

[7] = tested on: Horse; assay: Sedation and analgesia in horse, activity vs dosage; type: in vivo
Source text: as §1

[8] = Bradycardiac effect (general statement); conditions: in vivo

`Clc1cccc(Cl)c1N=C1NCCN1` [2-[(2,6-Dichlorophenyl)-imino]-imidazolidine.HCl, reference compound] showed an ED60 [1] of 10 µg/kg and an ED50 [2] of 17 µg/kg.
For `Cl.Fc1cccc(Br)c1N=C1NCCN1` [2-[(2-Bromo-6-fluorophenyl)-imino]-imidazolidine hydrochloride], the “Effect: analgesia” value ([3]; 0.01-0.03 mg/kg i.m.) was “weak”, the “Effect: sedation” value ([3]; 0.01-0.03 mg/kg i.m.) was “weak sedation” and the “Effect: sedation” value ([3]; 0.01-1.0 mg/kg i.m.) was “strong sedation”. The “Effect: analgesia” value ([3]; 0.03-0.06 mg/kg i.m.) was “rather weaker”, the “Effect: sedation” value ([3]; 0.03-0.06 mg/kg i.m.) was “good sedation” and the “Effect: analgesia” value ([3]; 0.06-0.1 mg/kg i.m.) was “good”. For the same compound, the “Effect: sedation” value ([3]; 0.06-0.1 mg/kg i.m.) was “very good sedation”, the “Effect: sedation” value ([4]; 2.0 mg/kg i.m.) was “strong sedation” and the “Effect: sedation” value ([4]; 2.0 mg/kg p.o.) was “good sedation”. The “Effect: sedation” value ([4]; 0.01-0.1 mg/kg i.m.) was “weak sedation”, the “Effect: sedation” value ([4]; 0.1-0.5 mg/kg i.m.) was “good sedation” and the “Effect: sedation” value ([4]; 0.5-1.0 mg/kg i.m.) was “very good sedation”. For the same compound, the “Effect: sedation” value ([4]; 0.5-1.0 mg/kg p.o.) was “good sedation”, the “Effect: analgesia during and after the operation” value [5] was “good” and the “Effect: sedation during and after the operation” value [5] was “good”. For the same compound, the ED60 [1] was 3 µg/kg, the “Effect: depth of sedation” value ([6]; calf, 0.04 mg/kg p.o.) was “very good depth of sedation” and the “Effect: rousability” value ([6]; calf, 0.04 mg/kg p.o.) was “animal cannot be roused”. For the same compound, the “Effect: analgesia” value ([6]; 0.006 mg/kg i.v., i.m.) was “no analgesia”, the “Effect: sedation” value ([6]; 0.006 mg/kg i.v., i.m.) was “low-level sedation” and the “Effect: sedation” value ([6]; 0.008 mg/kg i.m.) was “good sedation”. For the same compound, the “Effect: sleep” value ([6]; 0.008 mg/kg i.m.) was “deep”, the “Effect: sedation” value ([6]; 0.009 mg/kg i.m.) was “very good sedation” and the “Effect: sleep” value ([6]; 0.009 mg/kg i.m.) was “deep sleep”. The “Effect: analgesia” value ([6]; 0.009 mg/kg i.m., i.v. result: not total) was “as with i.v”, the “Effect: analgesia” value ([6]; 0.009 mg/kg i.v.) was “not total” and the “Effect: sedation” value ([6]; 0.009 mg/kg i.v.) was “very good sedation”. The “Effect: sleep” value ([6]; 0.009 mg/kg i.v.) was “deep sleep”, the “Effect: analgesia” value ([6]; 0.01 mg/kg i.m.) was “moderate analgesia” and the “Effect: sedation” value ([6]; 0.01 mg/kg i.m.) was “very good sedation”. For the same compound, the “Effect: analgesia” value ([6]; 0.01 mg/kg i.v.) was “moderate analgesia”, the “Effect: sedation” value ([6]; 0.01 mg/kg i.v.) was “very good sedation” and the “Effect: analgesia” value ([7]; 0.03 mg/kg i.m.) was “no”. For the same compound, the “Effect: sedation” value ([7]; 0.03 mg/kg i.m.) was “light sedation”, the “Effect: analgesia” value ([7]; 0.03 mg/kg i.v.) was “slight” and the “Effect: sedation” value ([7]; 0.03 mg/kg i.v.) was “light sedation”. For the same compound, the “Effect: analgesia” value ([7]; 0.06 mg/kg i.m.) was “rather weaker analgesia”, the “Effect: sedation” value ([7]; 0.06 mg/kg i.m.) was “moderate sedation” and the “Effect: analgesia” value ([7]; 0.06 mg/kg i.v.) was “good”. For the same compound, the “Effect: sedation” value ([7]; 0.06 mg/kg i.v.) was “strong sedation”, the “Effect: analgesia” value ([7]; 0.07 mg/kg i.v.) was “good” and the “Effect: sedation” value ([7]; 0.07 mg/kg i.v.) was “strong sedation”. The “Effect: analgesia” value ([7]; 0.08 mg/kg i.m.) was “good analgesia”, the “Effect: sedation” value ([7]; 0.08 mg/kg i.m.) was “strong sedation” and the ED50 [2] was 4 µg/kg.
In the case of `Fc1cccc(Br)c1N=C1NCCN1` [2-[(2-bromo-6-fluorophenyl)-imino]-imidazolidine], the bradycardiac effect [8] is reported as “marked bradycardiac effect”.
